# According to publication PMC7806715, “Discovery of small molecules targeting the tandem tudor domain of the epigenetic factor UHRF1 using fragment-based ligand discovery” (Scientific Reports, 2021):
# Columns and labels:
# N-UHRF1 vs. C-UHRF1 = molecular target: T1, N-UHRF1 vs. C-UHRF1 (Homo sapiens, UniProt Q96T88); assay: AlphaScreen assay: N-UHRF1 interaction with C-UHRF1 (TTD:PBR); type: biochemical; settings: for EC50 / AlphaScreen (N-UHRF1 vs. C-UHRF1) EC50: EC50 ± S.E.M., n=3, highest concentration tested 1 mM; for inhibition of N-UHRF1:C-UHRF1 interaction by peptide (in words): peptide (1-20) at 50 µM (Fig. S1)
# T1 construct: biotinylated-AviTag-N-UHRF1 (containing UBL and TTD, aa 1–285); made in house; host or cells: Rosetta (DE3) E. coli; pMCSG51 (N-UHRF1), pMCSG7 (FLAG-C-UHRF1)
# T1 sequence (Q96T88 1-285): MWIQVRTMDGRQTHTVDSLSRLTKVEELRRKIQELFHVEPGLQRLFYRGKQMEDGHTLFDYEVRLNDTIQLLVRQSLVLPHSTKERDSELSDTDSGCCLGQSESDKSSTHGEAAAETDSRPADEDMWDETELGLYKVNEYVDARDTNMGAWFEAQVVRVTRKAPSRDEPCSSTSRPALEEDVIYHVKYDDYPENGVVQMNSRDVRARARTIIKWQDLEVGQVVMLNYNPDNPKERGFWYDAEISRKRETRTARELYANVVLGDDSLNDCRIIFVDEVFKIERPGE
# Description: We next turned our attention to screens that reported on functional effects of fragment binding to UHRF1-TTD. UHRF1 can assume two functionally distinct conformations that are favored by different intra-molecular interactions[15],[32]–[35]. UHRF1 assumes a ‘closed’ conformation with diminished E3 ligase activity when the TTD domain interacts with the internal PBR[32]–[35]. To identify compounds that block this internal TTD:PBR interaction, we developed an assay using AlphaScreen (Amplified Luminescent Proximity Homogeneous Assay, Perkin Elmer) technology that detects the interaction between biotinylated-AviTag-N-UHRF1 (containing UBL and TTD, aa 1–285) and FLAG-C-UHRF1 (containing SRA, RING E3 domains and PBR, aa 414–793) (Fig. 1A,C). […] The signal change in each well was calculated relative to DMSO controls on each plate.
# The fragment screen was carried out on low volume 384-well white plates (Corning 4512) and the assay was performed at room temperature. First, 5 µl of AlphaScreen buffer (50 mM HEPES, pH = 6.5, 150 mM NaCl, 0.1% Triton X-100, 1 mM DTT) was dispensed by multidrop combi microplate dispenser (Thermo Scientific) and 300 nl of chemical fragment stock (10 mM in DMSO) was added to each well by pintool using Tecan Freedom Evo liquid handler. Next, 3 µl of AlphaScreen reagent mix containing 768 nM of Biotinylated-His-Avitag-N-UHRF1, 768 nM of FLAG-C-UHRF1, 40 µg/ml streptavidin donor beads, and 40 µg/ml Anti-FLAG conjugated acceptor beads (PerkinElmer) was added to each well by multidrop. The final concentration of FLAG-C-UHRF1 was 300 nM, Biotinylated-His-Avitag-N-UHRF1 was 300 nM, Donor/acceptor beads each was 15 µg/ml. In this assay, the biotinylated-AviTag-N-UHRF1 binds to streptavidin-coated donor beads while the FLAG-C-UHRF1 interacts with the anti-FLAG antibody-coated acceptor beads. The final compound concentration was 360 µM. After 1 h of incubation, the AlphaScreen signal of each plate was measured with a Tecan Infinite M1000 plate reader, which uses a high-power laser (680 nm, 750 mW) as the excitation light source for the donor beads and the AlphaScreen filter was used to detect the emission between 520 and 620 nm from the acceptor beads. For the dose-dependent assays for SAR, the final concentrations of N-UHRF1, C-UHRF1, donor, and acceptor beads were the same as fragment screen. The only differences were that the phosphate buffer was used (50 mM sodium phosphate, pH = 7, 150 mM NaCl, 1 mM DTT, and 0.1% Triton-X-100) and the final volume was 10 µL. For the fragment screen, on seven of the library plates there were 32-wells of DMSO control, while there were 8-wells of DMSO control in the last plate.
# [1] = molecular target: T2, His6-TTD (UHRF1 tandem Tudor domain) vs. H3K9me3 peptide (Homo sapiens, UniProt Q96T88); assay: TR-FRET assay: His6-TTD interaction with H3K9me3 peptide; type: biochemical; settings: EC50 ± S.E.M., n=3; highest concentration tested 1 mM
# T2 construct: Using the isolated His6-TTD (aa 123–283) we performed a thermal shift assay; made in house; host or cells: Rosetta (DE3) E. coli, pMCSG7
# T2 sequence (Q96T88 123-283): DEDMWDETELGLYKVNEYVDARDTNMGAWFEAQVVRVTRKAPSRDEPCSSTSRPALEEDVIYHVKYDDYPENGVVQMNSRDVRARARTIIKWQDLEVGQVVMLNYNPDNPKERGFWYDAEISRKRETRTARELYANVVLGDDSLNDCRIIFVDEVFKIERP
# Method: Finally, the fragment library was screened using a TR-FRET assay to find inhibitors that block the interaction of His6-TTD with H3K9me3 peptide. In this assay, an anti-His6-antibody labeled with Tb cryptate binds to His6-TTD while a streptavidin-d2 acceptor binds to a biotinylated histone H3K9me3 peptide. The binding between His6-TTD and H3K9me3 peptide was measured by the ratio of 665 nm fluorescence (from the d2 acceptor) to 620 nm fluorescence (from the Tb cryptate donor) (Fig. 1D).
# The fragment screen was carried out on low volume 384-well white plates (Corning 4512) and the assay was performed at room temperature. […] After 1 h of incubation, the fluorescent signals at 665 nm and 620 nm of each plate were measured by the Tecan Infinite M1000 plate reader (excitation 340 nm, 60 µs lag time, and 500 µs integration time) and the TR-FRET signal was calculated by the ratio of 665 nm/620 nm fluorescent signal. For the fragment screen, on seven of the library plates there were 32-wells of DMSO control, while there were 8-wells of DMSO control in the last plate. […] The only difference was that the final concentration of His6-TTD-PHD was 200 nM, biotin-H3K9me3 peptide was 200 nM for the His6-TTD-PHD TR-FRET assay, while the final concentration of His6-UHRF1-FL was 200 nM and biotin-H3K9me3 peptide was 100 nM for the His6-UHRF1-FL TR-FRET assay. The buffer pH was 7.5 for the His6-TTD-PHD and His6-UHRF1-FL assays.
# UHRF1-TTD = molecular target: T3, UHRF1-TTD (Homo sapiens, UniProt Q96T88); assay: Thermal shift assay (TSA) of TTD; type: binding; settings: for TSA (ΔTm) at 500 μM / ΔTm at 500 µM: compound at 500 μM, untagged TTD, 150 mM NaCl, mean ± S.D., n=3; for ΔTm at 200 µM: fragment screen, His6-TTD, final compound concentration 200 µM, 300 mM NaCl, read-out: ThermoFluor (ΔTm), fragment screen
# T3 construct: Using the isolated His6-TTD (aa 123–283) we performed a thermal shift assay; His6 (N, cleaved yes); made in house; host or cells: Rosetta (DE3) E. coli, pMCSG7
# T3 sequence (Q96T88 123-283): T2 sequence (Q96T88 123-283)
# Method: We used three different assays in parallel to screen a ~ 2300-fragment library to identify hits that bind to TTD or inhibit its activities. The first screening method was a direct binding assay, which generally serves as the basis for most fragment screening. Using the isolated His6-TTD (aa 123–283) we performed a thermal shift assay (TSA) to determine the change in melting temperature upon fragment binding. The change in protein melting temperature (ΔTm) caused by each fragment was calculated by comparison to the DMSO controls on the same plate.
# The fragment screen was carried out on LightCycler 480 Multiwell Plates 384 (Roche). The TSA mix contains 0.15 mg/ml of His6-TTD, 10 × of SYPRO Orange dye (ThermoFisher) in the TSA buffer (50 mM sodium phosphate, pH = 7, 300 mM NaCl). During the screen, 5 µl of TSA mix was dispensed into each well, and 100 nl of chemical fragments stock (10 mM in DMSO) was added to each well by pintool using Tecan Freedom Evo liquid handler to make the final compound concentration 200 µM. After 1 h of incubation at room temperature, the increase of fluorescence at 580 nm (excitation 465 nm) during the 20–90 degree melting (0.04 °C/s) was measured by LightCycler 480 Instrument II (Roche). For the fragment screen, on seven of the library plates there were 32-wells of DMSO control, while there were 8-wells of DMSO control in the last plate. […] Using un-tagged TTD for TSA provide closer resemblance to the native state of TTD. The lower salt concentration (150 mM NaCl) also allowed better comparison across three different assays during the dose-dependent SAR studies as both AlphaScreen and TR-FRET assay also use buffers containing 150 mM NaCl.
# USP7-UBL1/2 = USP7-UBL1/2 (Homo sapiens, UniProt Q93009); assay: TSA against USP7-UBL1/2; type: binding; settings: fragment screen
# Description: (§1) F1957-0227 was identified as a hit in two other AlphaScreen assays (N-UHRF1 vs. USP7-UBL1/2 and UHRF1-SRA domain vs. DNMT1-RFTS domain) and in three TSAs against unrelated protein targets (USP7-UBL1/2, UHRF1-SRA domain, and DNMT1-RFTS domain); we concluded that F1957-0227 behaves as a pan-assay interference compound (PAINS)[53] and is thus not suitable for follow-up.
# N-UHRF1 vs. USP7-UBL1/2 = assay: AlphaScreen assay N-UHRF1 vs. USP7-UBL1/2 (other screen); type: biochemical; settings: fragment screen
# Description: as §1
# UHRF1-SRA domain = molecular target: T4, UHRF1-SRA domain (Homo sapiens, UniProt Q96T88); assay: TSA against UHRF1-SRA domain; type: binding; settings: fragment screen
# T4 construct: unrelated protein targets (USP7-UBL1/2, UHRF1-SRA domain, and DNMT1-RFTS domain)
# T4 sequence (Q96T88 419-582 limits assumed): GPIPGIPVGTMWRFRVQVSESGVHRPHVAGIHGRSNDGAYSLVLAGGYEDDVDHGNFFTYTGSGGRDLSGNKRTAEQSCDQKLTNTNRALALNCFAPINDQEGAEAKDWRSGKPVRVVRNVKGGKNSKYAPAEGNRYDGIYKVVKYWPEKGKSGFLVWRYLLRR
# Description: as §1
# DNMT1-RFTS domain = molecular target: T5, DNMT1-RFTS domain (Homo sapiens, UniProt P26358); assay: TSA against DNMT1-RFTS domain; type: binding; settings: fragment screen
# T5 construct: unrelated protein targets (USP7-UBL1/2, UHRF1-SRA domain, and DNMT1-RFTS domain)
# Description: as §1
# [2] = molecular target: T6, UHRF1-SRA domain vs. DNMT1-RFTS domain (Homo sapiens, UniProt P26358+Q96T88); assay: AlphaScreen assay UHRF1-SRA domain vs. DNMT1-RFTS domain (other screen); type: biochemical; settings: fragment screen
# T6 construct: UHRF1-SRA domain vs. DNMT1-RFTS domain
# Description: as §1
# T6 sequence (P26358 400-533 limits assumed, one chain of several): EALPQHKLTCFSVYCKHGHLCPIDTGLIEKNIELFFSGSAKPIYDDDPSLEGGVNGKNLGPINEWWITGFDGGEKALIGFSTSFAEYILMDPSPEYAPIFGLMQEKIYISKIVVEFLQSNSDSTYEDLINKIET
# Sequence of USP7-UBL1/2 (Q93009 560-776 limits assumed): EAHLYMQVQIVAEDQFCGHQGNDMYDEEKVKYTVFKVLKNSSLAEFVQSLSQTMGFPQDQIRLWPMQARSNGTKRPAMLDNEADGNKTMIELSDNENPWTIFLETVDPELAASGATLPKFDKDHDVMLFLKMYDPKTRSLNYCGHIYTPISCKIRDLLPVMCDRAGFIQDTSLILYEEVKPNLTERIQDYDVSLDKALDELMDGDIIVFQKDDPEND
# T5 sequence (P26358 400-533 limits assumed): as the sequence (P26358 400-533 limits assumed, one chain of several) above
Molecule,EC50 (N-UHRF1 vs. C-UHRF1),EC50 [1],TSA (ΔTm) at 500 μM (UHRF1-TTD),also measured
c1cnc2c(c1)CCCN2 [Compound 2],164 ± 33 µM,109 ± 18.2 µM,0.75 ± 0.02 °C,–
Cc1c(Br)cnc2c1CCCN2 [Compound 3],75.7 ± 14.4 µM,58.5 ± 8.4 µM,0.1 ± 0.06 °C,–
"c1cnc2c(c1)CCCC2 [Compound 6, 5,6,7,8-tetra-hydro-quinoline]",–,> 500 µM,–,AlphaScreen (N-UHRF1 vs. C-UHRF1) EC50 (N-UHRF1 vs. C-UHRF1): 281.7 ± 227.7 µM; ΔTm at 500 µM (UHRF1-TTD): 0.21 ± 0.06 °C
"c1cnc2c(c1)NCCN2 [Compound 7, 1,2,3,4-tetrahydropyrido[2,3-b]pyrazine]",–,> 500 µM,–,AlphaScreen (N-UHRF1 vs. C-UHRF1) EC50 (N-UHRF1 vs. C-UHRF1): 379.8 ± 176.0 µM; ΔTm at 500 µM (UHRF1-TTD): 0.19 ± 0.06 °C
Cc1ccnc(N)c1 [Compound 8],52.6 ± 6.9 µM,238 ± 89.1 µM,0.66 ± 0.09 °C,–
Cc1ccnc(Cl)c1 [Compound 9],–,–,–,AlphaScreen (N-UHRF1 vs. C-UHRF1) EC50 (N-UHRF1 vs. C-UHRF1): No inhibition; TR-FRET (TTD vs. H3K9me3) EC50 [1]: No inhibition
Cc1cc(C)nc(N)c1 [Compound 12],21.3 ± 3.5 µM,51.9 ± 8.1 µM,1.59 ± 0.06 °C,–
Cc1cc(C)nc(C)c1 [Compound 15],> 500 µM,47.2 ± 4.9 µM,1.11 ± 0.06 °C,–
Cc1cc(C)c2c(n1)NCCC2 [Compound F1957-0088],–,–,–,ΔTm at 500 µM (UHRF1-TTD): 1.52 ± 0.09 °C; ΔTm at 200 µM (UHRF1-TTD): 1.74 °C
Nc1ncc(Br)c2cc[nH]c12 [Compound F1957-0227],–,–,–,hit call in TSA against USP7-UBL1/2 (USP7-UBL1/2): hit; hit call in AlphaScreen N-UHRF1 vs. USP7-UBL1/2 (N-UHRF1 vs. USP7-UBL1/2): hit; hit call in TSA against UHRF1-SRA domain (UHRF1-SRA domain): hit; hit call in TSA against DNMT1-RFTS domain (DNMT1-RFTS domain): hit; hit call in AlphaScreen UHRF1-SRA domain vs. DNMT1-RFTS domain [2]: hit; ΔTm at 200 µM (UHRF1-TTD): 2.58 °C
"H3K4me3 peptide: histone H3 (1-20) peptide trimethylated at Lys4, negative control [reference compound]",–,–,–,inhibition of N-UHRF1:C-UHRF1 interaction by peptide (in words) (N-UHRF1 vs. C-UHRF1): not
"H3K9me3 peptide: histone H3 (1–20) peptide trimethylated at Lys9, TTD ligand [reference compound]",–,–,–,inhibition of N-UHRF1:C-UHRF1 interaction by peptide (in words) (N-UHRF1 vs. C-UHRF1): could inhibit
